Data taken from patent US8067456B2 (AEterna Zentaris GmbH, priority 2004, dated 2011).
Converted amounts (≈) assume the structure as drawn. Read-outs that look alike come from different tables or passages of the source. Blank lines part the entries; values can stand above or below the molecule they belong to.

Tests used:
rat LHRH receptor = target: T1, rat LHRH receptor (Rattus norvegicus, UniProt P30969); assay: LHRH receptor-ligand binding assay (transfected LTK cells); settings: LTK cells transfected with rat LHRH receptor, 125I-triptorelin tracer, 37° C., 60 min; read-out: Binding to r-LHRHR EC50
T1 construct: expressed in transfected cells; host or cells: LTK cells (mouse fibroblasts, ATCC CCL-1.3)
T1 sequence (P30969 1-327): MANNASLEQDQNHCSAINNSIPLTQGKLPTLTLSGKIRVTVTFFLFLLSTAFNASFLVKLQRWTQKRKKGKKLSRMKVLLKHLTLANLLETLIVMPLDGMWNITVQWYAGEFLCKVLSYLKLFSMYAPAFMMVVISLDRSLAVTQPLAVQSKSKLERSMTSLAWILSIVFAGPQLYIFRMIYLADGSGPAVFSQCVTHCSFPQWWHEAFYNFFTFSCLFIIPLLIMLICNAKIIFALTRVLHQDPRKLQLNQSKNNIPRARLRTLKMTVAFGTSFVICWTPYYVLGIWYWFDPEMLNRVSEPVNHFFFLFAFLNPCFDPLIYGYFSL
Description: ^125I-Triptorelin [^125I-(D)-Trp6-GnRH] was purchased from Biotrend (Cologne, Germany).
The specific activity was in each case 2.13 Ci/mmol.
LTK cells (mouse fibroblasts: ATCC No. CCL-1.3) which have been transfected with the rat LHRH receptor are cultivated in DMEM medium (Invitrogen Life Technologies, Germany) with penicillin (100 I.U./ml), streptomycin (0.1 mg/ml) and glutamine (0.01 mol/l) and 10% fetal calf serum (FCS; Invitrogen Life Technologies, Germany) on plastic tissue culture plates (Nunc, Germany, 245×245-20 mm).
80% confluent cell culture plates are washed twice with 50 ml of phosphate-buffered saline (PBS) and then detached with 0.01 M EDTA solution. The cells are pelleted by centrifugation at 200·g for 5 min in a laboratory centrifuge (Kendro, Germany). The cell pellet is resuspended in 3 ml of binding medium (DMEM; 10 mM Hepes; 0.5% BSA; 0.1% […]; 1 g/l bacitracin (add fresh, stock 100×); 0.1 g/l SBTI (add fresh, stock 1000×) and the cell count is determined by Trypan blue staining in a Neubauer counting chamber. The cell suspension is adjusted with binding medium to a concentration of 5×10^5 cells/0.05 ml.
Binding studies for competition plots are carried out as duplicates. The test substances are employed as 10 mM DMSO solutions. They are diluted to 4 times the final concentration employed with binding medium. 25 μl of the substance dilution are mixed with 25 μl of tracer solution (^125I-triptorelin or ^125I-cetrorelix). The tracer concentration is adjusted to approx. 50 000 cpm (measured in a Cobra II, γ counter. PE Liefe Science, Germany) in the final reaction volume of 100 μl.
200 μl of silicone/liquid paraffin mixture (84%:16%) are introduced into 650 μl conical tubes (Roth. Germany). 50 μl of the cell suspension are pipetted thereon, followed by 50 μl of the test substance/tracer mixture. The tubes are capped and incubated with vertical rotation in an incubator at 37° C. for 60 min. After incubation, the samples are centrifuged in a centrifuge (Kendro, Germany) at 900 rpm and subsequently shock-frozen in liquid N2. The tip with the cell pellet is cut off and transferred into prepared counting vials (Roth, Germany). The remainder of the conical tube with the remaining supernatant is likewise transferred into a counting vial. The measurement takes place in a γ counter for 1 min/sample.
Evaluation of the samples takes place after calculation of the specific binding compared with untreated cells, after subtraction of the nonspecific binding (excess of unlabeled ligand, 1 μM) by means of GraphPad Prism or alternatively by means of OMMM software.

[1] = test system: LHRH-stimulated LH secretion from rat pituitary cells; assay: Inhibition of LHRH-induced LH secretion from rat pituitary cells in vitro; assay type: cell-based
Description: The LH concentration in cell culture supernatants was measured using the rat luteinizing hormone (rLH) enzyme immunoassay (EIA) system ELISA (RPN 2562) from Amersham Pharmacia Biotech. All other chemicals used were from commercial sources in the highest purity available.
Juvenile male Wistar rats (Harlan Winkelmann, Germany) were sacrificed by decapitation, and the pituitaries were removed and taken up in Hanks' buffer (HBSS) with 0.3% BSA and 10 mM HEPES (pH 7.4). Pituitaries from 20 rats were required to carry out one experiment. The cells of the anterior lobe of the pituitary were separated from the remaining tissue by incubation in Hanks' buffer with 10 mM HEPES (pH 7.4), 0.3% BSA, 1 mg/ml hyaluronidase (type VIII), 1 mg/ml soybean trypsin inhibitor, 10 μg/ml DNAsel and 1 mg/ml papain at 37° C. for 30 minutes A sterile Pasteur pipette was used to disperse the cells, and they were subsequently pelleted by centrifugation. The cells were seeded in a density of 2.5×10^5 cells/well of a collagen-coated 48-well plate (Becton Dickinson) in DMEM medium (Invitrogen Life Technologies, Germany) with 10% fetal calf serum (FCS; Invitrogen Life Technologies, Germany), 10 mill nonessential amino acids and 10 mill Pen/Strep (penicillin/streptomycin).
The medium was changed after incubation at 37° C., 5% CO2 and 95% humidity for 48 h. The medium was replaced by LHRH-containing (10 nM) medium or medium with LHRH (10 nM) and test substance in the concentration indicated (table). After a further incubation for 3 hours, the cell supernatant was harvested and frozen at −20° C. The LH content was determined by means of ELISA in triplicate determination in accordance with the manufacturer's (Amersham Pharmacia Biotech) instructions.
In the following table, “% Inhibition” describes the quotient of LHRH-stimulated LH secretion with (“LH (ng/ml)” and without the addition of the test substance. The values originate from different, independent experiments.

[2] = Saturation solubility in water; assay type: physicochemical; settings: maximum of 1% DMSO added, HPLC UV; for solubility: water, thermodynamic from solid
Description: The saturation solubility in water was determined in accordance with the following description: to initiate dissolving of the substances and to improve the wetting of the samples, a maximum of 1% DMSO was added. The content was checked by using an HPLC UV method.

LHRH receptor = target: T2, LHRH receptor (Rattus norvegicus, UniProt P30969); assay: LHRH receptor-ligand binding assay (membrane preparations from rat pituitary cells); settings: competition with 0.05 nM [125I][D-Trp6]-LHRH, 90 min, 4° C., rat pituitary membranes
T2 construct: rat pituitary cells which naturally strongly express the LHRH receptor; from tissue; host or cells: rat pituitary cells (membrane preparation)
T2 sequence (P30969 1-327): T1 sequence (P30969 1-327)
Description: Heterologous competition experiments were carried out using membrane preparations from rat pituitary cells which naturally strongly express the LHRH receptor. The ligand used in this case was [^125I][D-Trp^6]-LHRH in a concentration of 0.05 nM. Unlabeled [D-Trp^6]-LHRH was used in a concentration of 1 μM, or the test substance was used in the desired concentration, for competition. After an incubation time of 90 minutes at 4° C., the bound ligand was measured by scintillation (Halmos et al., Proc. Natl. Acad. Sci. USA, 1996, 93, 2398).
The result obtained was the percentage proportion of bound ligand in the presence of the competitor related to the specifically bound proportion of the control (see result for selected compounds in Table 3). EC50 values were calculated by nonlinear regression analysis of the competition plots.

[3] = Metabolic stability in rat liver microsomes; assay type: in vitro ADME; settings: 1 μM, 37° C., NADPH
Description: (§1) The metabolic stability in relation to liver microsomes (species human, rat) was determined in accordance with the following description: the substances were incubated at a test concentration of 1 […] An HPLC MS/MS method was subsequently used to quantify the unmetabolized amount of starting compound relative to 100%.

[4] = Metabolic stability in human liver microsomes; assay type: in vitro ADME; settings: 1 μM, 37° C., NADPH
Description: as §1

[5] = test substance 3.3 × 10^−8 M, LHRH 10 nM, 3 hours

Molecule: CCC(C)[C@H](NC(=O)[C@@]1(NC(=O)[C@@H](NC(=O)Cc2ccccc2F)C(C)CC)CCc2[nH]c3c(Cl)cc(Cl)cc3c2C1)C(N)=O (stereo partly drawn) [Compound 4, (R)-6,8-dichloro-3-{(S)-2-[2-(2-fluorophenyl)acetylamino]-3-methylpentanoylamino}-2,3,4,9-tetrahydro-1H-carbazole-3-carboxylic acid ((S)-1-carbamoyl-2-methylbutyl)amide]
EC50 (rat LHRH receptor): 4.8 nM | inhibition at 0.033 µM ([1]; Rattus norvegicus, 3 h): 67% | LH (ng/ml) ± SD [1, 5]: 79.3 ± 5.7 ng/mL

Molecule: CC[C@H](C)[C@H](NC(=O)[C@@]1(NC(=O)[C@H](Cc2ccc(OP(=O)(O)O)cc2)NC(=O)OCc2ccccc2)CCc2[nH]c3c(Cl)cc(Cl)cc3c2C1)C(N)=O [Compound 9]
solubility [2]: 151 µg/mL (≈ 191 µM)

EC50 (rat LHRH receptor): 7.5 nM
Molecule: CCC(C)[C@H](NC(=O)[C@@]1(NC(=O)[C@H](CCc2ccc(O)cc2)NC(=O)OCc2ccccc2)CCc2[nH]c3c(Cl)cc(Cl)cc3c2C1)C(N)=S (stereo partly drawn) [Compound 10, benzyl[(S)-1-[(R)-6,8-dichloro-3-((S)-2-methyl-1-thiocarbamoylbutylcarbamoyl)-2,3,4,9-tetrahydro-1H-carbazol-3-ylcarbamoyl]-3-(4-hydroxyphenyl)propyl]carbamate]
inhibition at 0.033 µM ([1]; Rattus norvegicus, test substance 3.3 × 10^−8 M, LHRH 10 nM, 3 hours, read-out: % Inhibition): 39% | inhibition at 0.0033 µM ([1]; Rattus norvegicus, test substance 3.3 × 10^−9 M, LHRH 10 nM, 3 hours): 0% | LH (ng/ml) ± SD [1, 5]: 118.7 ± 11.6 ng/mL | LH (ng/ml) ± SD ([1]; test substance 3.3 × 10^−9 M, LHRH 10 nM, 3 hours): 198.8 ± 4.2 ng/mL

EC50 (LHRH receptor): 8 nM
Molecule: CCC(C)[C@H](NC(=O)[C@@]1(NC(=O)[C@@H](NC(=O)OCc2ccc(F)cc2)C(C)CC)CCc2[nH]c3c(Cl)cc(Cl)cc3c2C1)C(N)=O (stereo partly drawn) [Compound 48, 4-fluorobenzyl {(S)-1-[(R)-3-((S)-1-carbamoyl-2-methylbutylcarbamoyl)-6,8-dichloro-2,3,4,9-tetrahydro-1H-carbazol-3-ylcarbamoyl]-2-methylbutyl}carbamate]

EC50 (LHRH receptor): 0.72 nM
Molecule: CCC(C)[C@H](NC(=O)Cc1ccc(F)cc1F)C(=O)N[C@]1(C(=O)N[C@H](C(N)=S)C(C)CC)CCc2[nH]c3c(Cl)cc(F)cc3c2C1 (stereo partly drawn) [Compound 66, (R)-8-chloro-3-{(S)-2-[2-(2,4-difluorophenyl)acetylamino]-3-methylpentanoylamino}-6-fluoro-2,3,4,9-tetrahydro-1H-carbazole-3-carboxylic acid ((S)-2-methyl-1-thiocarbamoylbutyl)amide]

EC50 (LHRH receptor): 6.9 nM
Molecule: CCC(C)[C@H](NCCc1ccc(F)cc1)C(=O)N[C@]1(C(=O)N[C@H](C(N)=S)C(C)CC)CCc2[nH]c3c(Cl)cc(F)cc3c2C1 (stereo partly drawn) [Compound 67, (R)-8-chloro-6-fluoro-3-{(S)-2-[2-(4-fluorophenyl)ethylamino]-3-methylpentanoylamino}-2,3,4,9-tetrahydro-1H-carbazole-3-carboxylic acid ((S)-2-methyl-1-thiocarbamoylbutyl)amide]

EC50 (LHRH receptor): 0.59 nM
Molecule: CCC(C)[C@H](NC(=O)[C@@]1(NC(=O)[C@@H](NC(=O)Cc2ccccc2F)C(C)CC)CCc2[nH]c3c(C(F)(F)F)cccc3c2C1)C(N)=O (stereo partly drawn) [Compound 75, (R)-3-{(S)-2-[2-(2-fluorophenyl)acetylamino]-3-methylpentanoylamino}-8-trifluoromethyl-2,3,4,9-tetrahydro-1H-carbazole-3-carboxylic acid ((S)-1-carbamoyl-2-methylbutyl)amide]

recovery at 1 μM [3]: 5% | recovery at 1 μM [4]: 0%
Molecule: CCC(C)[C@H](NC(=O)[C@@]1(NC(=O)[C@@H](NC(=O)OCc2ccccc2)C(C)CC)CCc2[nH]c3c(OC)cccc3c2C1)C(N)=O (stereo partly drawn) [Example 294 from WO 03/051837 A2, Benzyl {(S)-1-[(R)-3-((S)-1-carbamoyl-2-methylbutylcarbamoyl)-8-methoxy-2,3,4,9-tetrahydro-1H-carbazol-3-ylcarbamoyl]-2-methylbutyl]carbamate, reference compound]

Saturation solubility in water [2]: 0.38 µg/mL
Molecule: CCC(C)C(NC(=O)OCc1ccccc1)C(=O)NC1(C(=O)NC(C(N)=O)C2CCCCC2)CCc2[nH]c3c(Cl)cc(Cl)cc3c2C1 (centres unmarked) [Example 300 from WO 03/051837 A2, reference compound]

solubility [2]: 0.35 µg/mL (≈ 0.484 µM)
Molecule: CCC(C)C(NC(=O)C1(NC(=O)C(CCc2ccc(O)cc2)NC(=O)OCc2ccccc2)CCc2[nH]c3c(Cl)cc(Cl)cc3c2C1)C(N)=O (centres unmarked) [Example 303 from WO 03/051837 A2, Benzyl [1-[3-(1-carbamoyl-2-methylbutylcarbamoyl)-6,8-dichloro-2,3,4,9-tetrahydro-1H-carbazol-3-ylcarbamoyl]-3-(4-hydroxyphenyl)propyl]carbamate, reference compound]

Molecule: benzyl[(S)-1-[(R)-3-((S)-carbamoyl-2-methylbutylcarbamoyl)-6,8-dichloro-2,3,4,9-tetrahydro-1H-carbazol-3-ylcarbamoyl]-3-(4-phosphonooxyphenyl)propyl]-carbamate [Compound 11]
EC50 (rat LHRH receptor): 17.2 nM | Saturation solubility in water [2]: 39.9 µg/mL | Metabolic stability (human) [1 h, % recovery] [4]: 77%
